From patent US12606795B2 (Thankcome Biological Science and Technology (SuZhou) Co., …, priority 2023, dated 2026)
In brackets after ≈: the same amount, converted by molar mass. Blank lines part the entries; values can stand above or below the compound they belong to.

Columns and labels:
[1] = test system: AKK PROBIO; assay: Drug sensitivity, agar dilution method (CLSI); type: cell-based, Akkermansia muciniphila; conditions: for MIC: Akkermansia muciniphila, read-out: Test strain AKK PROBIO MIC, agar dilution method; for Test strain AKK PROBIO Judgment result: judged by CLSI S/I/R criterion of Table 6
Description: Referring to the Clinical and Laboratory Standards Institute (CLSI) method [CLSI. Performance Standards for Antimicrobial Susceptibility Testing; 26th ed. CLSI supplement M100S.
The sensitivity of AKK PROBIO to ampicillin, ceftriaxone, cefotaxime, meropenem, tetracycline, moxifloxacin, and chloramphenicol was determined using an agar dilution method recommended by CLSI. The quality-control strain B. fragilis ATCC 25285 was determined using a micro broth dilution method recommended by CLSI.

[2] = test system: Bacteroides fragilis ATCC 25285; assay: Drug sensitivity of quality-control strain, micro broth dilution method (CLSI); type: cell-based; conditions: ATCC25285
Description: Bacteroides fragilis ATCC 25285 was selected as a quality-control strain. The sensitivity of […] to ampicillin, ceftriaxone, cefotaxime, meropenem, tetracycline, moxifloxacin, and chloramphenicol was determined using an agar dilution method recommended by CLSI. The quality-control strain B. fragilis ATCC 25285 was determined using a micro broth dilution method recommended by CLSI.

[3] = test system: gouty arthritis mouse model; assay: Gouty arthritis mouse model (sodium urate); type: in vivo, BALB/c mice; conditions: glucosamine sulfate 195 mg/kg. bw intragastric
Description: Mice were randomly divided into 5 groups: a normal group, a model group, a glucosamine sulfate (positive control) group, an Akk low-concentration experimental (Akk-L) group, and an Akk high-concentration experimental (Akk-H) group, with 10 mice in each group. The mice in the normal group and the mice in the model group were intragastrically administered with distilled water at a dosage of 0.1 mL/10 g. bw per day. The mice in the glucosamine sulfate group were intragastrically administered with glucosamine sulfate at a dosage of 195 mg/kg. bw. The mice in the Akk-L group and the mice in the Akk-H group were intragastrically administered with Akk experimental bacteria at a dosage of 10^8 CFU/kg. bw and 10^9 CFU/kg. bw, respectively, for 7 consecutive days. Then, all experimental mice were anesthetized with isoflurane, and then 50 μL of PBS solution was injected into the tibiotarsal joint (ankle joint) of the right paw of the mouse in the normal group. 50 mg of sodium urate was added to 1 mL of PBS buffer to prepare a suspension. 50 μL of suspension was injected into the tibiotarsal joints (ankle joint) of the right paws of the rest of the mice except the mice in the […] to induce gouty arthritis. After the mice woke up, they were intragastrically administrated with a corresponding sample for 7 d still at the dosage of the sample intragastrically administrated in the previous 7 days.
0.1 g of mouse ankle joint tissue was weighed and added into […] containing 0.9 mL of saline and mixing was performed. Subsequently, mixed tissue samples were centrifuged at a speed of 4000 rpm for 10 min to obtain liquid supernatant. Next, related indicators in the liquid supernatant of a tissue homogenate was determined using assay kits for MPO, SOD, GSH, and MDA.
A taken-out whole blood sample of the mouse was centrifuged at 4° C. at 4000 rpm for 10 min to obtain supernatant serum. Serum-related inflammatory indicators were determined using the ELISA kit for IL-6, IL-10, IL-1β, and TNF-α.

[4] = test system: S. typhimurium TA98; conditions: TA98 −S9
Description: (§1) Bacterial strains used were Salmonella typhimurium TA97a (National Center for Type Culture Collection NTCC, 506391), S. typhimurium TA98 (NTCC, 506392), S. typhimurium TA100 (NTCC, 506395), S. typhimurium TA1535 (NTCC, 506396), and Escherichia coli WP2 uvrA (CHI Scientific, Co., Ltd., product number: 6-1705). To prepare a drug delivery formulation, distilled water was used as a carrier to prepare a suspension (100 mg/mL) for a test item. […] Therefore, bacteria in samples for the test item were removed by a mechanical means. In the process of mixing the formulation, any soluble components for the test item was dissolved in the carrier, and then, residual bacteria were removed by centrifugation (4° C.; 8000 rpm; 10 min). After centrifugation, liquid supernatant was removed and sterile filtration was performed with a 0.22 μm filter.
(§2) In the confirmatory mutation research, detection was performed at 15.81, 50, 158.1, 500, 1581, and 5000 μg/plate. The maximum concentration was recommended by current regulations and guidelines. […] The survival rate of test bacterial cells was checked through plate experiments in each test. If there is a dosage-related increase in the number of revertants, it is considered that the test item has mutagenicity, and/or a reproducible biology-related positive reaction targeting at least one dosage group occurs in at least one strain with or without metabolic activation.

[5] = test system: Salmonella typhimurium TA97a; conditions: TA97a −S9
Description: as §1, §2

[6] = test system: AOM/DSS-induced colorectal carcinoma mice; assay: AOM/DSS-induced colorectal carcinoma mice; type: in vivo, C57BL/6 mice
Description: 6-week-old SPF male C57BL/6 mice, purchased from the Chongqing Lepitt Biotechnology Co., Ltd. The mice were raised in a standardized laboratory with room temperature of 25° C.±2° C., relative humidity of 50%±5%, and 12 h of light/12 h of darkness. […] In experiments, mice were given free feeding and water. On the first day of experimental molding, the mice in the model group, the aspirin group, and the AKKP group were injected intraperitoneally with AOM at a dosage of 10 mg/kg, and were fed with 2.5% DSS aqueous solution at weeks 2, 5, and 8. The mice in the normal group and model group were intragastrically administrated with sterile saline; the mice in the aspirin group were intragastrically administrated with an aspirin solution at 67 mg/kg, and the mice in the AKKPL group and the AKKPH group were intragastrically administrated at dosages of 1×10^8 CFU/kg and 1×10^9 CFU/kg, respectively, for 10 consecutive weeks. In the experiments, diet, activity, vigor and hair conditions, and fecal properties of the mice in each group were observed. Each mouse was weighed per week and the body weights were recorded. After the experiments, blood was collected from eyeballs and the mice were sacrificed by removing their vertebrae. The mice were dissected to take out large intestine tissue, spleen tissue, liver tissue, and the kidney tissue for later testing.
After the mice were dissected, the large intestine tissue, the spleen tissue, the liver tissue, and the kidney tissue were taken out and weighed. An organ Index was calculated using a formula, while the colorectum length of the mouse was measured and the colorectal tumorigenesis number of the mouse was recorded. Organ index=organ weight (mg)/mouse body weight (g).
After being fixed in a tissue fixative for 24 h, the rectum of the mouse was transferred into 95% ethanol for dehydration, and then the dehydrated rectum was placed in xylene to replace alcohol in the tissue to make the rectum tissue transparent. Then, the treated rectum was embedded with paraffin. The embedded rectum was sectioned by a microtome, and then a tissue section was stained with H&E and fixed, obtaining a pathologic tissue section, with a thickness of 2 to 3 μm, of the rectum of the mouse, and the pathologic tissue section was observed under the upright microscope.
Whole blood was collected from the eyeballs, and centrifuged at 4000 r/min and 4° C. for 10 min to separate supernatant serum. According to the instruction of the ELISA kit, the levels of IL-1β, IL-6, IFN-γ, iNOS and NF-κB in the serum of the mouse were determined.
About 50 mg colon tissue was taken and cleaned with saline, and the cleaned colon tissue was placed in a homogenization tube containing 6 zirconia beads, and 500 μL TRIzol™ reagent was added to extract RNA in the tissue. The purity and concentration of RNA were determined using the micro-spectrophotometer. […] Then, after cDNA was generated by reverse transcription, a reaction system containing 1 μL cDNA was prepared. Other reagents include 10 μL qPCR SYBR Green Master Mix, […] sterile distilled water, 1 μL forward primer and 1 μL reverse primer. qRT-PCR amplification reaction conditions: 95° C., 10 s, 60° C., 30 s, 40 cycles; 95° C., 15 s, 60° C., 60 s, 95° C., 15 s. Taking Eef2 as an internal reference gene, the mRNA relative expression of each target gene was calculated according to formula 2^−ΔΔCt.

[7] = qRT-PCR, aspirin 67 mg/kg or AKKPH 1×10^9 CFU/kg, vs model group, P<0.05
[8] = qRT-PCR, vs model group, P<0.05

Compound: O=C(N[C@H](CO)[C@H](O)c1ccc([N+](=O)[O-])cc1)C(Cl)Cl [Chloramphenicol, chloramphenicol]
- MIC [1]: 4 µg/mL (≈ 12.4 µM)
- Test strain AKK PROBIO Judgment result [1]: Sensitive
- Test strain AKK PROBIO Judgment result ([1]; listed as chloramphenicol): sensitive
- MIC [2]: 8 µg/mL (≈ 24.8 µM)

Compound: N[C@H]1C(O)O[C@H](CO)[C@@H](O)[C@@H]1O.O=S(=O)(O)O (stereo partly shown) [Glucosamine sulfate, glucosamine sulfate, reference compound]
- SOD in mouse ankle joint tissue ([3]; model group 1.07, normal 6.07): 2.50 ± 0.40 U/mg
- MPO in mouse ankle joint tissue ([3]; model group 2.49, normal 0.38): 1.82 ± 0.17 U/g
- GSH in mouse ankle joint tissue ([3]; model group 18.06, normal 47.05): 31.14 ± 1.66 mg/g
- IL-1β in serum of mice ([3]; model group 24.97, normal 12.66): 21.15 ± 1.22 ng/mL
- MDA in mouse ankle joint tissue ([3]; model group 26.69, normal 5.74): 20.31 ± 1.52 nmol/mg
- IL-10 in serum of mice ([3]; model group 36.03, normal 27.20): 32.84 ± 1.94 ng/mL
- IL-6 in serum of mice ([3]; model group 90.05, normal 52.97): 66.85 ± 4.90 ng/mL
- TNF-α in serum of mice ([3]; model group 249.41, normal 117.58): 204.43 ± 15.32 ng/mL

Compound: CN(C)c1ccc(N=NS(=O)(=O)[O-])cc1.[Na+] [Positive control 1, fenaminosulf]
- Number of revertant mutants per plate (mean ± standard deviation) [4]: 1525.00
- Number of revertant mutants per plate (mean ± standard deviation) [5]: 1169.4

Compound: CN(C)[C@@H]1C(O)=C(C(N)=O)C(=O)[C@@]2(O)C(O)=C3C(=O)c4c(O)cccc4[C@@](C)(O)[C@H]3C[C@@H]12 [Tetracy cline, tetracycline]
- MIC [1]: 2 µg/mL (≈ 4.5 µM)
- MIC [2]: 0.5 µg/mL (≈ 1.13 µM)

Compound: CC(=O)Oc1ccccc1C(=O)O [aspirin, reference compound]
- body weight loss ([6]; AOM/DSS mice, intragastric 10 weeks, aspirin 67 mg/kg, AKKP 1×10^8 and 1×10^9 CFU/kg): alleviate the body weight loss in the mice to a certain extent
- content of IL-6 in serum ([6]; ELISA, vs model group): reduced
- content of IFN-γ in serum ([6]; ELISA, vs model group, P<0.05): reduced
- content of IL-1β in serum ([6]; ELISA, vs model group, P<0.05): lower than that in the model group
- content of NF-κB in serum ([6]; ELISA, vs model group, P<0.05): reduced
- content of iNOS in serum ([6]; ELISA, vs model group, P<0.05): reduced
- colorectum weight/length (ratio) ([6]; aspirin 67 mg/kg intragastric 10 weeks, model group 4.34±0.35, normal 2.81±0.34): 3.17±0.50
- pathological morphology of rectum tissue (H&E) ([6]; aspirin, AKKPL and AKKPH groups): no obvious erosion found in the rectal mucosa
- kidney index / renal tissue ([6]; between the five groups, P>0.05): no significant difference
- mRNA relative expression of IκBβ in colon tissue [6, 7]: significantly reduced
- mRNA relative expression of p50 in colon tissue [6, 7]: significantly reduced
- mRNA relative expression of Bid in colon tissue [6, 8]: significantly increased
- mRNA relative expression of Bim in colon tissue [6, 8]: significantly increased
- mRNA relative expression of caspase-9 in colon tissue [6, 8]: significantly increased
- mRNA relative expression of p52 in colon tissue [6, 8]: significantly reduced
- mRNA relative expression of p65 in colon tissue [6, 8]: significantly reduced
- colorectal tumorigenesis number ([6]; vs model group, P<0.05): significantly smaller
- liver weight (liver index) ([6]; vs model group, P<0.05): reduced
- spleen weight (spleen index) ([6]; vs model group, P<0.05): reduced
- colorectum length ([6]; vs model group, P<0.05, aspirin 67 mg/kg, AKKP 1×10^8 and 1×10^9 CFU/kg, 10 weeks): relatively long

The next lines start with results.

- MIC [1]: < 0.25 µg/mL
- MIC [2]: 64 µg/mL (≈ 183 µM)
Compound: CC1(C)S[C@@H]2[C@H](NC(=O)[C@H](N)c3ccccc3)C(=O)N2[C@H]1C(=O)O [Ampicillin, ampicillin]
- Test strain AKK PROBIO Judgment result [1]: Sensitive
- Test strain AKK PROBIO Judgment result ([1]; listed as ampicillin): sensitive

- MIC [1]: 16 µg/mL (≈ 35.1 µM)
- MIC [2]: 32 µg/mL (≈ 70.3 µM)
Compound: CO/N=C(\C(=O)N[C@@H]1C(=O)N2C(C(=O)O)=C(COC(C)=O)CS[C@H]12)c1csc(N)n1 [Cefotaxime, cefotaxime]
- Test strain AKK PROBIO Judgment result [1]: Sensitive
- Test strain AKK PROBIO Judgment result ([1]; listed as cefotaxime): sensitive

- MIC [1]: 8 µg/mL (≈ 14.4 µM)
- MIC [2]: 128 µg/mL (≈ 231 µM)
Compound: CO/N=C(\C(=O)N[C@@H]1C(=O)N2C(C(=O)O)=C(CSc3nc(=O)c(=O)[nH]n3C)CS[C@H]12)c1csc(N)n1 [Ceftriaxone, ceftriaxone]
- Test strain AKK PROBIO Judgment result [1]: Sensitive
- Test strain AKK PROBIO Judgment result ([1]; listed as ceftriaxone): sensitive

- MIC [1]: 0.125 µg/mL (≈ 0.326 µM)
- MIC [2]: 0.25 µg/mL (≈ 0.652 µM)
Compound: C[C@@H](O)[C@H]1C(=O)N2C(C(=O)O)=C(S[C@@H]3CN[C@H](C(=O)N(C)C)C3)[C@H](C)[C@H]12 [Meropenem, meropenem]
- Test strain AKK PROBIO Judgment result [1]: Sensitive
- Test strain AKK PROBIO Judgment result ([1]; listed as meropenem): sensitive
